# Patent US9909104B2, “Generating definitive endoderm and pancreatic progenitor cells” (The J. David Gladstone Institutes, a testamentary trust …, priority 2013, dated 2018)
# pIC50: −log10 of the molar value.
# Experiments:
# [1] = test system: definitive endoderm-like cells (DELCs); assay: Induction of DELCs into Pdx1+/Nkx6.1+ pancreatic progenitor-like cells (step III); format: cell-based, mouse; details: screen of 400 compounds, confirmed in larger-well cultures
# Method: At the end of treatment, lineage specific markers were analyzed by immunostaining and/or real-time PCR.
# Primary antibodies used were Sox17 (R&D), Foxa2 (Millipore), Pdx1 (R&D), Hnf6 (Santa Cruz), Pax6 (Covance), Sox9 (Santa Cruz), Nkx6.1 (Developmental Studies Hybridoma Bank), Insulin (Dako), Glucagon (Sigma), Somatostatin (Abcam), Amylase (Abcam), and CK19 (Abcam). Nuclei were visualized by DAPI (Sigma-Aldrich) staining Images were captured using a Nikon Eclipse TE2000-U microscope.
# An available drug collection of 400 compounds in the 48-well format was screened to identity small molecules that induce high percentages of Pdx1^+/Nkx6.1^+ cells in DELC populations. Med-III medium (DMEM supplemented with 1×B27, 2 mM Glutamax) was used as the basal condition and double staining of Pdx1 and Nkx6.1 at 4 days post-induction was used as the readout.
# Induction of Pdx1 and Nkx6.1 expression by small molecules is referred herein to the “third step” (step III) of pancreatic induction.
# [2] = test system: Dox-inducible secondary mouse embryonic fibroblasts (MEFs); assay: Direct reprogramming of secondary MEFs into definitive endoderm-like cells (Sox17/Foxa2); format: cell-based; details: 1 μM Bix-01294 D0-D6; 280 μM pVc D0-D12
# Method: Dox-inducible secondary mouse embryonic fibroblasts (MEFs) (cells at passage 3-4 were regularly used) were plated on Matrigel-coated culture dishes at a cell density of 1×10^4 cells/cm^2. Cells were cultured in MEF medium (Dulbecco's modified Eagle's medium with 10% fetal bovine serum and 2 mM Glutamax) for an additional day. The medium was then changed to Med I (Knock-out DMEM with 10% knock-out serum replacer, 5% FBS, 2 mM Glutamax, 0.1 mM non-essential amino acids (NEAA), and 0.055 mM β-mercaptoethanol) supplemented with 4 μg/ml Dox, 50 ng/ml Activin A and 1 mM LiCl for the indicated time. […] All reagents were purchased from Invitrogen if not specified, and all cytokines were from R&D Systems. […]
# Total RNA was extracted using the RNeasy Plus Mini Kit in combination with QIAshredder (Qiagen). […] Expression of pluripotency and lineage-specific marker genes was analyzed by real-time PCR with iQ SYBR Green Supermix (Bio-Rad). […]
# To test this hypothesis, conditions were evaluated in which definitive endoderm induction factors (Activin/Li) were added to fibroblasts either after (Approach-I) or during (Approach II) iPSC factor expression, using Sox17 and Foxa2 expression as a measure of DELC induction (FIG. 1A).
# [3] = test system: pancreatic progenitor-like cells (PPLCs); assay: Maturation of PPLCs into pancreatic-like cells (step IV, day 25); format: cell-based, mouse; details: 5 μM SB203580 or 280 μM pVc used individually, D16-D25, day 25
# Method: The pancreatic progenitor-like cells generated as described herein were treated with Med-IV medium containing laminin, nicotinamide, and B27 etc. as previously reported (Schroeder et al., 2006) to determine whether those PPLCs can be further differentiated into mature pancreatic like cells. After 9 days of culture in this medium, a small population (about 0.5%) of insulin and C-peptide double-positive cells was detected.
# To improve efficiency of pancreatic maturation, the inventors' drug collection was further screened in a “fourth” step (step IV) to identify compounds that increase the percentage of cells that express insulin and Pdx1 on day 25.
# secondary MEF cells = assay: Small molecules in first/second reprogramming steps, Pdx1/Nkx6.1 double staining on day 16; format: cell-based, mouse; details: 1 μM Bix-01294 D0 to D6; 280 μM pVc D0 to D12; readout day 16
# Method: The inventors then hypothesized that overlapping lineage-specific patterning conditions based on small molecules with early reprogramming would enhance pancreatic induction. To this end, further screens of the inventors' drug collection were performed during the first- and second-step inductions, with double staining of Pdx1 and Nkx6.1 at the end of the third step (day 16) as a readout. […] In particular, 1 μM Bix-01294 (a G9a histone methyltransferase inhibitor), when added from D0 to D6, and 280 μM pVc, when added from D0 to D12, increased the number of Pdx1+/Nkx6.1+ colonies to about 3 fold and 4 fold respectively (FIG. 4D-4E).
# [4] = test system: HDAC activity in HeLa extracts; details: read-out: IC50 for inhibition of HDAC activity; cited from earlier work
# cPE cells = assay: Maturation of cPE cells into C-peptide positive beta-like cells in vitro; format: cell-based, human; details: supplemented individually to basal pancreatic differentiation media
# Description: Full maturation towards glucose responsive cells is optimally illustrated by transplantation of in vitro differentiated pancreas endoderm progenitor cells into immune compromised mice. […] While C-peptide positive cells expressing high levels of PDX1 were consistently observed after 10-14 days in culture (FIG. 11B), the relatively low number of cells (˜0.5%) indicated further optimization of conditions may improve the frequency of conversion to functional beta-like cells. Chemical compounds able to promote differentiation of definitive endoderm (Borowiak et al. (2009)) and PDX1^+ progenitors (Chen et al. (2009) have been identified previously. However, molecules directing the final steps of differentiation into beta-like cells have not been uncovered, likely due to difficulties in generating and maintaining sufficient numbers of differentiation-competent pancreatic endodermal progenitor cells.
# A chemical screen was performed with the intent of identifying factors that would result in the more efficient development of C-peptide positive cells from expanded cPE cells.
# [5] = test system: histone deacetylases (HDACs); details: isoform not stated; read-out: IC50 (histone deacetylase); cited from earlier work
# presenilase activity = details: At higher concentrations (20-4000/1); cited from earlier work
# γ-secretase = details: total β-amyloid; cited from earlier work
# SAPK2/p38 = SAPK2/p38 (Homo sapiens, UniProt Q16539); details: CK1 and ALK5 inhibitor; cited from earlier work
# [6] = test system: Human foreskin fibroblasts; assay: Conversion of human fibroblasts into definitive endodermal progenitor (cDE) colonies
# Chain of SAPK2/p38 (Q16539 whole entry): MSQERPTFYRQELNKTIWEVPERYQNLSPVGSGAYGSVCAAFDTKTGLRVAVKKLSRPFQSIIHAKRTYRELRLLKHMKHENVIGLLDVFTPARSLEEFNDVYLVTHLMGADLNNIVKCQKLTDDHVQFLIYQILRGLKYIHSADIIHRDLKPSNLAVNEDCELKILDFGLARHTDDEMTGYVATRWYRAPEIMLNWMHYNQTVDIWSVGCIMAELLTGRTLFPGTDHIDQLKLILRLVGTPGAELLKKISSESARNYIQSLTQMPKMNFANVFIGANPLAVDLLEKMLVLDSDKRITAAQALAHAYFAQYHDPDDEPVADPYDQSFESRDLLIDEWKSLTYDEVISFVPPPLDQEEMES
compound,measurement,setting,value
2-phospho-L-ascorbic acid trisodium salt [pVc],hit confirmation: increase of Pdx1 and/or Nkx6.1 expression,[1],Confirmed hits
same,numbers of Sox17 and Foxa2 single positive and double positive cells,[2],no significant influence
same,number of insulin+/Pdx1+ double-positive cells,[3],significantly increased
same,number of Pdx1+/Nkx6.1+ colonies,secondary MEF cells,~4 fold
"Cc1cccc(-c2nn(C(=S)Nc3ccccc3)cc2-c2ccnc3ccccc23)n1 [A83-01, 3-(6-Methyl-2-pyridinyl)-N-phenyl-4-(4-quinolinyl)-1H-pyrazole-1-carbothioamide]",hit confirmation: increase of Pdx1 and/or Nkx6.1 expression,[1],Confirmed hits
"Nc1ccccc1NC(=O)CCCCCCC(=O)Nc1ccccc1 [BML-210, N1-(2-aminophenyl)-N8-phenyl-octanediamide]",pIC50,[4],~4.10
"COC(=O)C1=C(C)NC(C)=C([N+](=O)[O-])C1c1ccccc1C(F)(F)F (stereo not drawn) [BayK-8644, 3-pyridinecarboxylic acid, 1,4-dihydro-2,6-dimethyl-5-nitro-4-(2-(trifluoromethyl)phenyl), methyl ester]",effect on percentage of C-peptide positive cells,cPE cells,effective in increasing
COc1cc2nc(N3CCCN(C)CC3)nc(NC3CCN(Cc4ccccc4)CC3)c2cc1OC [Bix-01294],numbers of Sox17 and Foxa2 single positive and double positive cells,[2],no significant influence
same,number of Pdx1+/Nkx6.1+ colonies,secondary MEF cells,about 3 fold
"CC1(C)NC(=O)C(CCCCCC(=O)[C@H]2CO2)NC(=O)C2CCCN2C(=O)[C@@H](Cc2ccccc2)NC1=O (stereo partly drawn) [Chlamydocin, (3R)-3-benzyl-6,6-dimethyl-9-[6-[(2R)-oxiran-2-yl]-6-oxohexyl]-1,4,7,10-tetrazabicyclo[10.3.0]pentadecane-2,5,8,11-tetrone]",pIC50,[5],~9.82
C[C@H](NC(=O)Cc1cc(F)cc(F)c1)C(=O)N[C@H]1N=C(c2ccccc2)c2ccccc2N(C)C1=O [Compound E],effect on presenilase activity,presenilase activity,only weakly affects
same,effect on percentage of C-peptide positive cells,cPE cells,effective in increasing
same,pIC50,γ-secretase,9.52
"NC(=O)c1ccc(-c2nc(-c3ccc4c(c3)OCCO4)c(-c3ccccn3)[nH]2)cc1 [D 4476, 4-[4-(2,3-Dihydro-1,4-benzodioxin-6-yl)-5-(2-pyridinyl)-IH-imidazol-2-yl]benzamide]",selectivity over SAPK2/p38,SAPK2/p38,greater than 20 fold
"CC1NC(=O)C(C)NC(=O)C2CCCN2C(=O)C(CCCCCCC(=O)C2CO2)NC1=O [HC Toxin, (6R,9S,14aR)-3,6R-dimethyl-9S-(7-((S)-oxiran-2-yl)-7-oxoheptyl)decahydropyrrolo[1,2-a][1,4,7,10]tetraazacyclododecine-1,4,7,10-tetranone]",pIC50,[5],7.52
Cc1c(C(=O)Nc2ccc(N3C[C@@H](C)O[C@@H](C)C3)nc2)cccc1-c1ccc(OC(F)(F)F)cc1 [LDE225],hit confirmation: increase of Pdx1 and/or Nkx6.1 expression,[1],Confirmed hits
"Nc1ccccc1NC(=O)c1ccc(CNc2nccc(-c3cccnc3)n2)cc1 [MGCD0103, N-(2-aminophenyl)-4-[[(4-pyridin-3-ylpyrimidin-2-yl)amino]methyl]benzamide]",pIC50,[5],~7.00
"Nc1ccccc1NC(=O)c1ccc(CNC(=O)OCc2cccnc2)cc1 [MS-27-275, pyridin-3-ylmethyl-N-[[4-[(2-aminophenyl)carbamoyl]phenyl]methyl]carbamate]",pIC50,[5],6.00 to 7.00
"CCNC(=O)[C@H]1O[C@@H](n2cnc3c(N)ncnc32)C(O)C1O (stereo partly drawn) [NECA, 5′-N-ethylcarboxamidoadenosine]","further increase of conversion rate over improved condition (NaB, Par, RG)",[6]; FOXA2 positive colonies day 28,2 fold
same,increase over the basal protocol,"[6]; NECA together with NaB, Par, RG108",5 fold
same,"FOXA2 and SOX17 double-positive cDE colonies from 400,000 human fibroblasts","[6]; optimized condition (NaB, Par, RG108, NECA)",approximately fifty
"C[S+]([O-])c1ccc(-c2nc(-c3ccc(F)cc3)c(-c3ccncc3)[nH]2)cc1 (stereo not drawn) [SB203580, 4-(4-fluorophenyl)-2-(4-methylsulfinylphenyl)-5-(4-pyridyl)-1H-imidazole]",number of insulin+/Pdx1+ double-positive cells,[3],significantly increased
"CC(/C=C/C(=O)NO)=C\[C@@H](C)C(=O)c1ccc(N(C)C)cc1 [Trichostatin A, (R,2E,4E)-6-(4-(dimethylamino)benzoyl)-N-hydroxy-4-methylhepta-2,4-dienamide]",pIC50,[5],~8.74
O=C1O[C@H]([C@@H](O)CO)C(O)=C1O [Vitamin C],effect on percentage of C-peptide positive cells,cPE cells,effective in increasing
